# Laboratory results published in US20260234159A1, “SMALL MOLECULE TREATMENT OF FATTY LIVER DISEASE AND HCC” (SCANDIEDGE THERAPEUTICS AB, priority 2023, published 2026).
# Key:
# [1] = MTT cell viability / IC50 in growth media; type: cell-based, human; settings: human, HepG2 cells, 10 μM; for viability at 4 day, 10 µM: day 4; for viability at 2 days, 10 µM: treatment for 2 days
# Experimental: (§1) The cytotoxic effects of the synthesized drugs on the HepG2 cells were tested by MTT (Thiazolyl Blue Tetrazolium Bromide) method. HepG2 cells were seeded 2×10^4 cells per well in 96-well plate in 200 μL growth media. […] After the incubation period, 5 mg/ml MTT (M2128, Sigma-Aldrich) solution in PBS (10 μL) was added to each well. After 1 hr, the MTT solution and all media were removed from the wells. 100 μl of DMSO was added and mixed to dissolve the formazan crystals. Cell viability was analysed by measuring the absorbance of the dissolved formazan in a microplate reader at a wavelength of 570 nm with microplate reader (Hidex Sense Beta Plus).
# (§2) HepG2 cells were maintained and used with RPMI 1640 (R2405, Sigma-Aldrich) supplemented with 10% fetal bovine serum (F7524, Sigma-Aldrich), 1% P/S (P4333, Sigma-Aldrich). 20,000 cells per well of HepG2 cells were seeded into a 96-well plate and triplicated for MTT assay and LDH assay. Cell viability was measured by MTT assay (M6494, ThermoFisher) and cytotoxicity was measured by LDH assay kit (ab65393, abcam) by following manufacturer's instructions. Optical density (O.D) was numerated using a microplate reader (Hidex Sense Meta Plus).
# HepG2 cells [2] = experiment: MTT cell viability / IC50 in growth media; type: cell-based, human; settings: 30 μM to 30 nM; for IC50: Homo sapiens, 48 h, HepG2, treatment for 2 days
# Experimental: as §1, §2
# PARP = experiment: Western blot, cleaved PARP; type: cell-based, human; settings: 10 μM, 2 days
# Experimental: (§3) HepG2 cells were seeded into a 6-well plate at 400,000 cells per well. After treatment with 10 μM of JNK-IN-5A and its derivatives for two days, lysates were harvested with CelLytic M (C2978, Sigma-Aldrich). 20 μg lysate was prepared with 2× Laemmli Sample Buffer (1610737, Biorad). SDS PAGE were performed using Mini-PROTEAN® TGX™ Precast Gels (Bio-Rad) and transferred using Trans-Blot® Turbo™ Transfer System (Bio-Rad). Primary antibody, PARP (95425, Cell signalling), Caspase 3 (ab32042, abcam), Bcl-2 (ab182858), STAT1 (HPA000982, Merk), PKL (06653, Sigma), PKM (4053S, Cell signalling), GAPDH (ab8245, abcam), P53 (ab32389, abcam), p21 (ab109199, abcam), p-S349 p62 (ab211324, abcam), p62 (ab109012, abcam), c-Myc (ab32072, abcam), GPX4 (ab125066, abcam), MMP9 (MA5-32705, Invitrogen), β-actin (ab8227, abcam), and α-tubulin (ab7291, abcam) were blotted overnight and Goat Anti-Rabbit HRP (ab205718) and goat anti-mouse IgG-HRP (sc2005, Santa Cruz Biotechnology, Inc.) were blotted for secondary antibody for one hour. ImageQuantTMLAS 500 (29-0050-63, GE) was used to detect protein bands.
# Caspase 3 = experiment: Western blot, active caspase 3; type: cell-based, human; settings: 10 μM, 2 days
# Experimental: as §3
# JNK1/2/3 = experiment: Western blot, JNK1/2/3 P54 and p46 isoforms; type: cell-based, human; settings: 10 μM, 2 days
# Experimental: HepG2 cells were seeded into a 6-well plate at 400,000 cells per well. After treatment with 10 μM of JNK-IN-5A and its derivatives for two days, lysates were harvested with CelLytic M (C2978, Sigma-Aldrich). […] SDS PAGE were performed using Mini-PROTEAN® TGX™ Precast Gels (Bio-Rad) and transferred using Trans-Blot® Turbo™ Transfer System (Bio-Rad). […] ImageQuantTMLAS 500 (29-0050-63, GE) was used to detect protein bands.
# c-Myc = experiment: Nuclear protein western blot, c-Myc; type: cell-based, human; settings: 10 μM, 2 days
# Experimental: as §3
# p21 = experiment: Nuclear protein western blot, p21; type: cell-based, human; settings: 10 μM, 2 days
# Experimental: as §3
# GPX4 = experiment: Western blot, GPX4; type: cell-based, human; settings: compared to the control
# Experimental: as §3
# HepG2 cells [3] = experiment: FACs analysis with PI staining (cell cycle); type: cell-based, human; settings: for cell cycle distribution / arrest: PI FACS
# Experimental: 400,000 HepG2 cells were seeded in a 6-well plated and treated with 10 μM of the compounds for 2 days. Cells were fixed with 70% ethanol and stained with 50 μg/ml PI. Prepared cells were analysed using BD FACS Canto II Flow Cytometry system at PE-A channel 10,000 cells per group. The data was histogram plotted with BD FACSDiva 9.0.
# HepG2 cells [4] = experiment: Mitochondrial membrane potential assay (TMRE); type: cell-based, human; settings: 10 μM, one day
# Experimental: (§4) HepG2 cells were seeded into a 6-well plate at 400,000 cells per well. After treatment with the compounds at desired concentration and time, TMRE (ab113852, abcam), Autophagy (ab139484, abcam), ROS (ab113851, abcam), and Lipid peroxidation (ab243377, abcam) assay were performed according to manufacturer's instructions. Fluorescence images were taken using ZOE™ Fluorescent Cell Imager (Biorad) and ROI of fluorescence intensity was measured and calculated by Image J. For microplate reader florescence assay, 40,000 of HepG2 cells were seeded into a 96-well plate and triplicated. GFP (Ex480 nm, Em530 nm) and RFP (Ex549 nm, Em574 nm) were measured using a microplate reader (Hidex Sense Meta Plus).
# HepG2 cells [5] = experiment: Autophagy assay; type: cell-based, human; settings: 10 μM, one day
# Experimental: as §4
# HepG2 cells [6] = experiment: Invasion assay (transwell); type: cell-based, human
# Experimental: The effects of the treatment with the compounds on the invasion ability of HepG2 and Huh7 cells were determined by 8 μm pores transwell chamber (Corning™ 3464, USA).
# (§5) Transwell membrane was coated with 100 μl collagen (Sigma C3867, USA) diluted with PBS to a concentration of 1 mg/ml. After overnight incubation at 4° C., the collagen solution was discarded and the membrane was washed with PBS. 100,000 cells in 200 μl serum free media together with the tested compounds were added into the upper well and 600 μl of 10% FBS supplemented growth media was added to the lower well as an invasive attractant in a 24-well plate. Cells were incubated at 37° C. in a CO2 incubator for one day. The cells were fixed with 3.7% formaldehyde for 30 minutes at room temperature and washed with PBS twice. The cells were stained with 1% crystal violet in PBS for 20 minutes and residual cells in inner membrane were swabbed gently with a cotton swab. Invaded cells located at the outer membrane were imaged by ZOE Fluorescent Cell Imager (Bio-Rad, USA) and counted by image. For wound healing assay, 100,000 cells per well were seeded into 24-well plates and grown until 95-100% confluent. Linear wound was created by using a 200 μl pipette tip. Image was recorded at the time point of day 0 until control group wound closure with 1 μM of compounds by ZOE Fluorescent Cell Imager (Bio-Rad, USA). Wound areas were measured using ImageJ software.
# HepG2 cells [7] = experiment: Wound healing assay; type: cell-based; settings: Homo sapiens, HepG2, 96 h, day 4, untreated 100% wound closure, read-out: wound healing delayed by
# Experimental: as §5
Compound,"viability at 4 day, 10 µM [1] [%]","viability at 2 days, 10 µM [1] [%]",dose dependence of cell viability (HepG2 cells [2]),IC50 (HepG2 cells [2]) [µM],increase in cleaved PARP vs untreated control (PARP) [times],active caspase 3 levels (Caspase 3) [times],JNK1/2/3 p46 expression (JNK1/2/3) [times],nuclear c-Myc expression (c-Myc),p21 nuclear localization (p21),GPX4 expression levels (GPX4),cell cycle distribution / arrest (HepG2 cells [3]),"Cell population G0/G1 (HepG2 cells [3]; PI FACs, 10 μM, 2 days)","Cell population G2/M (HepG2 cells [3]; PI FACs, 10 μM, 2 days)","Cell population S (HepG2 cells [3]; PI FACs, 10 μM, 2 days)",mitochondrial membrane potential (HepG2 cells [4]),autophagy GFP signals (HepG2 cells [5]),"inhibition at 1 µM (HepG2 cells [6]; Homo sapiens, HepG2, 24 hr, read-out: invasiveness reduced by) [%]",inhibition at 1 µM (HepG2 cells [7]) [%],"invasiveness reduced by (HepG2 cells [6]; 1 μM, 24 hr)"
"CNC(=O)c1cc(Oc2ccc(NC(=O)Nc3ccc(Cl)c(C(F)(F)F)c3)c(F)c2)ccn1 [Regorafenib, regorafenib, reference compound]",13.4,41.1,dose-dependent decrease in cell viability,5.91,16,3.61,0.65,decreased,not,significantly higher,did not alter the cell cycle distribution significantly,70.5,14.9,9.7,decrease,did not induce autophagy,21,44.8,–
"CNC(=O)c1cc(Oc2ccc(NC(=O)Nc3ccc(Cl)c(C(F)(F)F)c3)cc2)ccn1 [Sorafenib, sorafenib, reference compound]",19.2,51,dose-dependent decrease in cell viability,8.64,10,4.35,0.81,decreased,not,significantly higher,did not alter the cell cycle distribution significantly,–,–,10.1,decrease,did not induce autophagy,–,35,28.7%±2.9
